Data published in ChEMBL document CHEMBL1151867, “Two novel monoterpene-chalcone conjugates isolated from the seeds of Alpinia katsumadai” (Bioorg Med Chem Lett, 2009).
Converted amounts (≈) assume the structure as drawn.

How the values were obtained:
Format in all cases: functional, cell-based
[1] = test system: HepG2; test: Cytotoxicity against human HepG2 cells by MTT method
[2] = test system: MDA-MB-435; test: Cytotoxicity against human MDA-MB-435 cells by MTT method
[3] = test system: MCF7; test: Cytotoxicity against human MCF7 cells by MTT method

Q: For `CC(C)[C@H]1C=C[C@]2(C)Oc3c(C(=O)/C=C/c4ccccc4)c(O)cc(O)c3C2C1` (stereo partly drawn) [Sumadain C], which IC50 [1] is on record?
A: Its IC50 is 13 µg/mL (≈ 33.3 µM).

Q: And the IC50 [2]?
A: Its IC50 is 12.8 µg/mL (≈ 32.7 µM).

Q: And the IC50 [3]?
A: The IC50 was 15.9 µg/mL (≈ 40.8 µM).
